{
  "source": "patent US9353152B2",
  "about": "“Induction of the mitochondrial permeability transition” (NewSouth Innovations Pty Limited, priority 2002, dated 2016)",
  "key": {"[1]": {"test": "Titration of arsenoxide compounds with DTT", "type": "physicochemical", "settings": "GSAO versus Compound 1"}, "[2]": {"system": "human pancreatic carcinoma BxPC-3 cells", "test": "Cell proliferation and viability assay (MTT)", "type": "cell-based", "settings": "Homo sapiens, BXPC-3; 10% serum, 48 h; read-out: IC50 for proliferation arrest of BxPC-3 cells", "procedure": "(§1) BAE or human pancreatic carcinoma BxPC-3 cells were seeded at a density of 10^3 cells per well into 96 well plates in DMEM containing 10% foetal bovine serum and allowed to adhere for 24 h. Cells were washed and incubated with DMEM containing 10% foetal bovine serum and GSAO or o-GSAO and cultured for a further 48 h. Some BAE cells were arrested for 24 h in medium containing 0.25% serum and cultured for a further 48 h in medium containing 0.25% or 10% serum, in the presence of GSAO or o-GSAO. Viable attached cells were determined using MTT."}, "BAE cells [3]": {"system": "BAE cells"}, "MPTP": {"target": "T1, MPTP (Rattus norvegicus, UniProt Q09073)", "T1 construct": "Mitochondria were isolated from the livers of ˜250 g male Wistar rats; from tissue; host or cells: rat liver mitochondria (male Wistar rats)", "T1 sequence (Q09073 2-298 limits assumed)": "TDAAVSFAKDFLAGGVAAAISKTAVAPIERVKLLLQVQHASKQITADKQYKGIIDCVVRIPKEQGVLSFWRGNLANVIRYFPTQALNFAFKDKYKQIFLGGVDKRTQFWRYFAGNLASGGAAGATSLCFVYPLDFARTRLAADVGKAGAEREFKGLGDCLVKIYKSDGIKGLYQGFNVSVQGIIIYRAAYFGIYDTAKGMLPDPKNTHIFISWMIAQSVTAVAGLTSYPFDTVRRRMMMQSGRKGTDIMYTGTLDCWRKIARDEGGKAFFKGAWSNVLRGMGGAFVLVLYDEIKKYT", "type": "biochemical"}, "[4]": {"test": "Side-effects in Balb-C nude mice bearing BxPC-3 tumours", "type": "in vivo", "procedure": "Female 7 to 9 week old Balb C nude were used (UNSW Biological Resource Centre). Mice were held in groups of 3 to 5 at a 12 h day and night cycle and were given animal chow and water ad libidum. A suspension of 2.5×10^6 BxPC-3 cells in 0.2 mL of PBS was injected subcutaneously in the proximal midline. Tumours were allowed to establish and grow to a size of ˜40 mm^3 after which they were randomised into four groups. Tumour volume was calculated using the relationship, a·b^2·0.52, where a is the longest and b the shortest diameter. Animals were treated with either GSAO or o-GSAO at a dose 1 or 10 mg/kg/day in 0.1 mL of PBS. The compounds were administered subcutaneously at a site distant from the tumour. Tumour volume and animal weight was measured every 2 or 3 days.\nBalb-C nude mice bearing ˜40 mm^3 BxPC-3 tumours were randomised into four groups (n=10 or 11 per group) and treated subcutaneously with either GSAO (part A) or o-GSAO (part B) at 1 or 10 mg/kg/day in 0.1 mL of PBS. Parts C and D are the mice weights for the respective groups, where the arrow indicates start of treatment. The data points are the mean±SE of the tumour volumes or mice weights. Treatment with 10 mg/kg o-GSAO (part B) was stopped at day 14 due to necrosis and inflammation at sites of injection in 7 out of 11 mice (3/11 with severe ulcers, 4/11 with medium ulcers)."}, "[5]": {"test": "Toxicity of o-GSAO in Balb-C mice", "type": "in vivo", "procedure": "FIG. 22. Toxicity of o-GSAO. Balb-C mice (6-8 week old, 3 per group) were treated subcutaneously with 1 or 10 mg/kg/day of o-GSAO in 0.1 mL of PBS. The data points are the mean±SE of the mice weights."}, "BAE cells [6]": {"system": "BAE cells", "test": "Cell proliferation and viability assay (MTT)", "type": "cell-based, bovine", "procedure": "as §1"}, "BAE cells [7]": {"system": "BAE cells", "test": "cells", "settings": "Bos taurus, read-out: IC50 (μM)*"}, "[8]": {"target": "T2, mitochondrial permeability transition pore (Rattus norvegicus, UniProt Q09073)", "T2 construct": "Mitochondria were isolated from the livers of ˜250 g male Wistar rats; from tissue; host or cells: rat liver mitochondria (male Wistar rats)", "T2 sequence (Q09073 2-298 limits assumed)": "T1 sequence (Q09073 2-298 limits assumed)", "type": "biochemical", "settings": "for a given concentration"}, "ANT": {"target": "T3, ANT (Rattus norvegicus, UniProt Q09073)", "T3 construct": "Mitochondria were isolated from the livers of ˜250 g male Wistar rats; from tissue; host or cells: rat liver mitochondria (male Wistar rats)", "T3 sequence (Q09073 2-298 limits assumed)": "T1 sequence (Q09073 2-298 limits assumed)", "test": "Binding of GSAO-B to ANT (streptavidin pull-down, Western blot)", "settings": "100 μM GSAO-B, 1 h; competed by 4-fold molar excess of dimercaptopropanol", "procedure": "Rat liver mitochondria were suspended at 1 mg of protein per mL at 25° C. in 3 mM HEPES-KOH, pH 7.0 buffer containing 213 mM mannitol, 71 mM sucrose and 10 mM sodium succinate and incubated with 100 μM GSAO-B in absence or presence of 400 μM 2,3-dimercaptopropanol (Fluka, Buchs, SG, Switzerland) at room temperature on a rotating wheel for 1 h. The labelled mitochondria were washed three times with PBS and sonicated in 0.3 mL of ice-cold 25 mM Tris, pH 7.4 buffer containing 140 mM NaCl, 2.7 mM KCl, 0.5% Triton X-100, 0.05% Tween-20, 10 μM leupeptin, 10 μM aprotinin, 50 μg·mL^−1 […] and 5 mM EDTA. Lysate was clarified by centrifugation at 18000 g for 10 min at 4° C. and incubated with 30 μL of streptavidin-dynabeads (Dynal, Oslo, Norway) for 60 min at 4° C. on a rotating wheel to isolate the biotin-labelled proteins. The beads were washed 5 times with sonication buffer and the biotin-labelled proteins were released from the beads by boiling in 30 μl of SDS-Laemmli buffer for 2 minutes. Samples were resolved on 8-16% gradient iGels under reducing conditions and transferred to PVDF membrane. Proteins were detected by Western blot using a 1:500 dilution of goat anti-human ANT polyclonal antibody (Santa Cruz Biotechnology, Santa Cruz, Calif.) and 1:2000 dilution of rabbit anti-goat peroxidase-conjugated antibodies (Dako, Carpinteria, Calif.)."}, "[9]": {"settings": "10 mg/kg/day o-GSAO s.c., day 14"}},
  "note": "“And” between values parts separate entries of the source, which are not always exact repeats. Equal values may be shown once.",
  "data": [
    {"smiles": "NC(CCC(=O)NC(CSCC(=O)Nc1ccccc1[As](O)O)C(=O)NCC(=O)O)C(=O)O", "note": "(stereo not drawn) [Compound 1, NH2-Glu-Cys-(CH2CONH—C6H4-o-As{OH}2)-Gly-OH]", "values": [
      {"measurement": "arsenical reactivity (titration with DTT)", "setting": "[1]", "value": "no significant difference"},
      {"measurement": "IC50", "setting": "[2]", "value": "~2000", "unit": "nM"},
      {"measurement": "Fold Increase", "setting": "BAE cells [3]", "value": 53.2},
      {"measurement": "MPTP Swelling Rate Increase/GSAO* Mean", "setting": "MPTP", "value": 16.3},
      {"measurement": "weight loss", "setting": "[4]; 10 mg/kg/day o-GSAO s.c.", "value": "some weight loss"},
      {"measurement": "mice with medium ulcers", "setting": "[4]; [9]", "value": "4/11"},
      {"measurement": "mice with severe ulcers", "setting": "[4]; [9]", "value": "3/11"},
      {"measurement": "mice with necrosis and inflammation at sites of injection", "setting": "[4]; 10 mg/kg/day o-GSAO s.c., treatment stopped at day 14", "value": "7 out of 11 and 7 of 11"},
      {"measurement": "behavioural side-effects in Balb C nude mice", "setting": "[4]; 1 or 10 mg/kg/day s.c.", "value": "not observed"},
      {"measurement": "Side-effects of o-GSAO administration", "setting": "[5]; 1 mg/kg/day s.c., day 1", "value": "nil"},
      {"measurement": "Side-effects of o-GSAO administration", "setting": "[5]; 1 mg/kg/day s.c., day 2", "value": "ruffled fur; mild hyperactivity^b"},
      {"measurement": "Side-effects of o-GSAO administration", "setting": "[5]; 1 mg/kg/day s.c., day 3", "value": "ruffled fur; mild hyperactivity^b"},
      {"measurement": "Side-effects of o-GSAO administration", "setting": "[5]; 1 mg/kg/day s.c., day 4", "value": "ruffled fur; mild hyperactivity^b"},
      {"measurement": "Side-effects of o-GSAO administration", "setting": "[5]; 1 mg/kg/day s.c., day 5", "value": "ruffled fur; hyperactivity; clonic"},
      {"measurement": "Side-effects of o-GSAO administration", "setting": "[5]; 1 mg/kg/day s.c., day 6", "value": "ruffled fur; hyperactivity; clonic"},
      {"measurement": "Side-effects of o-GSAO administration", "setting": "[5]; 1 mg/kg/day s.c., day 7", "value": "ruffled fur; hyperactivity; clonic"},
      {"measurement": "Side-effects of o-GSAO administration", "setting": "[5]; 1 mg/kg/day s.c., day 8", "value": "ruffled fur; hyperactivity^b"},
      {"measurement": "Side-effects of o-GSAO administration", "setting": "[5]; 1 mg/kg/day s.c., day 9", "value": "ruffled fur; mild hyperactivity^b"},
      {"measurement": "Side-effects of o-GSAO administration", "setting": "[5]; 1 mg/kg/day s.c., day 10", "value": "ruffled fur; mild hyperactivity^b"},
      {"measurement": "Side-effects of o-GSAO administration", "setting": "[5]; 1 mg/kg/day s.c., day 11", "value": "ruffled fur; mild hyperactivity^b"},
      {"measurement": "Side-effects of o-GSAO administration", "setting": "[5]; 1 mg/kg/day s.c., day 13", "value": "nil"},
      {"measurement": "Side-effects of o-GSAO administration", "setting": "[5]; 1 mg/kg/day s.c., day 14", "value": "nil"},
      {"measurement": "Side-effects of o-GSAO administration", "setting": "[5]; 10 mg/kg/day s.c., day 1", "value": "ruffled fur; hyperactivity; mild"},
      {"measurement": "Side-effects of o-GSAO administration", "setting": "[5]; 10 mg/kg/day s.c., day 2", "value": "ruffled fur; mild hyperactivity^b"},
      {"measurement": "Side-effects of o-GSAO administration", "setting": "[5]; 10 mg/kg/day s.c., day 3", "value": "ruffled fur; mild hyperactivity^b"},
      {"measurement": "Side-effects of o-GSAO administration", "setting": "[5]; 10 mg/kg/day s.c., day 4", "value": "ruffled fur; mild hyperactivity^b"},
      {"measurement": "Side-effects of o-GSAO administration", "setting": "[5]; 10 mg/kg/day s.c., day 5", "value": "ruffled fur; hyperactivity; clonic"},
      {"measurement": "Side-effects of o-GSAO administration", "setting": "[5]; 10 mg/kg/day s.c., day 6", "value": "ruffled fur; hyperactivity; clonic"},
      {"measurement": "Side-effects of o-GSAO administration", "setting": "[5]; 10 mg/kg/day s.c., day 7", "value": "ruffled fur; hyperactivity; clonic"},
      {"measurement": "Side-effects of o-GSAO administration", "setting": "[5]; 10 mg/kg/day s.c., day 8", "value": "ruffled fur; hyperactivity^b"},
      {"measurement": "Side-effects of o-GSAO administration", "setting": "[5]; 10 mg/kg/day s.c., day 9", "value": "ruffled fur; mild hyperactivity^b"},
      {"measurement": "Side-effects of o-GSAO administration", "setting": "[5]; 10 mg/kg/day s.c., day 10", "value": "ruffled fur; mild hyperactivity^b"},
      {"measurement": "Side-effects of o-GSAO administration", "setting": "[5]; 10 mg/kg/day s.c., day 11", "value": "ruffled fur; mild hyperactivity^b"},
      {"measurement": "Side-effects of o-GSAO administration", "setting": "[5]; 10 mg/kg/day s.c., day 13", "value": "skin necrosis at the injection site"},
      {"measurement": "Side-effects of o-GSAO administration", "setting": "[5]; 10 mg/kg/day s.c., day 14", "value": "skin necrosis at the injection site"},
      {"measurement": "weight loss", "setting": "[5]; 1 or 10 mg/kg/day s.c., Balb C mice", "value": "no weight loss observed"},
      {"measurement": "skin effects with repeated injections in the same area", "setting": "[5]; Balb C mice", "value": "thickening of the skin and occasional necrosis"},
      {"measurement": "times more effective than GSAO at inhibiting proliferation of BAE cells", "setting": "BAE cells [6]", "value": "~50", "unit": "times"},
      {"measurement": "selectivity for proliferating versus growth-quiescent endothelial cells", "setting": "BAE cells [6]; 0.25% or 10% serum, 48 h", "value": "not selective for proliferating (angiogenic) endothelial cells"},
      {"measurement": "IC50", "setting": "BAE cells [6]; Bos taurus, 10% serum, 48 h, read-out: IC50 for proliferation arrest of BAE cells", "value": "160 ± 30", "unit": "nM"},
      {"measurement": "IC50", "setting": "BAE cells [7]", "value": 0.16, "unit": "µM"},
      {"measurement": "half-time for maximal swelling, times faster compared to GSAO", "setting": "[8]", "value": "3-5 times"}
    ]},
    {"smiles": "O=[As]c1ccc(NC(=O)CSC[C@H](NC(=O)CC[C@H](NC(=O)CCCCCNC(=O)CCCCCNC(=O)CCCC[C@@H]2SC[C@@H]3NC(=O)N[C@@H]32)C(=O)O)C(=O)NCC(=O)O)cc1", "note": "(stereo partly shown) [GSAO-B, 4-(N—(S—(N-(6-((6-((biotinoyl)amino)hexanoyl)amino)hexanoyl)-glutathionyl)acetyl)amino) phenylarsenoxide]", "values": [
      {"measurement": "labelling of ANT with GSAO-B", "setting": "ANT", "value": "Direct interaction"}
    ]}
  ]
}
